# Patent US20230277630A1, “METHODS AND COMPOSITIONS FOR TREATING AMYOTROPHIC LATERAL SCLEROSIS” (Amylyx Pharmaceuticals, Inc., priority 2022, published 2023)
# Where “and” joins values, the source holds several entries; their conditions need not be identical. Equal entries are not always repeated. Where two headings read alike, the source gives them in different places.
# Tests used:
# [1] = target: T1, human liver microsomes (HLM) (Homo sapiens, UniProt P05177); assay: CYP reaction phenotyping using HLM and chemical inhibitors (% remaining); format: in vitro ADME; conditions: human, microsomes, 5 μM, pH 7.4
# T1 construct: from tissue; host or cells: pooled human liver microsomes
# T1 sequence (P05177 1-516): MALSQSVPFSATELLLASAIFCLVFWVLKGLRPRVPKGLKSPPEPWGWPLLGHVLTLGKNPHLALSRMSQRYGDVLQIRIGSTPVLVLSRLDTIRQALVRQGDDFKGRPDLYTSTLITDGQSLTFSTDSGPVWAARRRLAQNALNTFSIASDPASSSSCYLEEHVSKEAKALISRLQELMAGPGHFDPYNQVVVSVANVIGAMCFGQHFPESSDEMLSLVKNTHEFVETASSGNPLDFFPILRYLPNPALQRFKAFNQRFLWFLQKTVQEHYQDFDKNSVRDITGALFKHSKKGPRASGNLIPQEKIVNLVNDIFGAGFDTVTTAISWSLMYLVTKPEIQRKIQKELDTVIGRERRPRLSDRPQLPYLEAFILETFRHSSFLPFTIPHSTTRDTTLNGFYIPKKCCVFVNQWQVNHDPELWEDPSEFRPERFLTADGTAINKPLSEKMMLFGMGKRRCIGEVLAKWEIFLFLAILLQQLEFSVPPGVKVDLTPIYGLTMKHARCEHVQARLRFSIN
# Excerpt: (§1) % Remaining of TA=100×At/A0
# (§2) Where, At and A0 are the peak area ratio of TA to IS at time t and at time zero, respectively.
# [2] = target: T2, human liver microsomes (HLM) (Homo sapiens, UniProt P10635); assay: as above; format: in vitro ADME; conditions: human, microsomes, 5 μM, pH 7.4
# T2 construct: from tissue; host or cells: pooled human liver microsomes
# Excerpt: as §1, §2
# [3] = target: T3, human liver microsomes (HLM) (Homo sapiens, UniProt P11712); assay: as above; format: in vitro ADME; conditions: human, microsomes, 5 μM, pH 7.4
# T3 construct: from tissue; host or cells: pooled human liver microsomes
# Excerpt: as §1, §2
# [4] = target: T4, human liver microsomes (HLM) (Homo sapiens, UniProt P33261); assay: as above; format: in vitro ADME; conditions: human, microsomes, 5 μM, pH 7.4
# T4 construct: from tissue; host or cells: pooled human liver microsomes
# Excerpt: as §1, §2
# [5] = system: human liver microsomes (HLM); assay: as above; format: in vitro ADME; conditions: human, microsomes, 5 μM, pH 7.4
# Excerpt: as §1, §2
# hrCYP1A2 = target: T5, hrCYP1A2 (Homo sapiens, UniProt P05177); conditions: recombinant enzyme, 5 μM, pH 7.4
# T5 sequence (P05177 1-516): T1 sequence (P05177 1-516)
# Procedure: (§3) The reaction was initiated by the addition of NADPH, followed by incubation at 37° C.
# as §1
# (§4) Where, At is the peak area ratio of TA to internal standard (IS) at time t, A0 is the average peak area ratio of TA to IS at time zero.
# hrCYP2C8 = target: T6, hrCYP2C8 (Homo sapiens, UniProt P10632); conditions: recombinant enzyme, 1 h, 5 μM, pH 7.4
# T6 sequence (P10632 1-490): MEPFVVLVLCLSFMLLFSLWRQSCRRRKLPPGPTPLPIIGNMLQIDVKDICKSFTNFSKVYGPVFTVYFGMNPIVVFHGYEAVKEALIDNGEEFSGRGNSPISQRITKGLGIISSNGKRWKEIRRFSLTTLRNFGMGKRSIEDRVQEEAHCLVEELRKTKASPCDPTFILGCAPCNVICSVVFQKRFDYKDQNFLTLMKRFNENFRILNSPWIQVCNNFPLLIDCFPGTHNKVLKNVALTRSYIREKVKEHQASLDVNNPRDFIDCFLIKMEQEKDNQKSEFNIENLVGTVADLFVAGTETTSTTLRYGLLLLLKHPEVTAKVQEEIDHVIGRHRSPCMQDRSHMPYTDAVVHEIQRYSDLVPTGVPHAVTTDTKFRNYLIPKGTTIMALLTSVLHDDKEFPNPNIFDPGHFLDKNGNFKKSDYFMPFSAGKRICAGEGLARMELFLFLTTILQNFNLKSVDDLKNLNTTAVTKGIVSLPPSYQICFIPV
# Procedure: as §3, §1, §4
# hrCYP2C9 = hrCYP2C9 (Homo sapiens, UniProt P11712); conditions: recombinant enzyme, 5 μM, pH 7.4
# Procedure: as §3, §1, §4
# hrCYP2D6 = hrCYP2D6 (Homo sapiens, UniProt P10635); conditions: recombinant enzyme, 5 μM, pH 7.4
# Procedure: as §3, §1, §4
# hrCYP3A4 = hrCYP3A4 (Homo sapiens, UniProt P08684); conditions: recombinant enzyme, 5 μM, pH 7.4
# Procedure: as §3, §1, §4
# [6] = Relevant concentrations of TUDCA and PB for in vitro transporter assessment ([I]1, [I]2, Iin,max)
# [7] = Solubility assessment in HBSSg_7.4 and HBSSg_8.5; conditions: for solubility: 37 °C, thermodynamic from solid; for Measured Concentration / Percent of the Nominal Concentration: replicates 1-3; for Measured Concentration: incubated overnight
# Procedure: All solubility samples were prepared in silanized glass tubes. […] After incubation, the mixture was centrifuged at 20800 g for 15 minutes. The supernatant was diluted appropriately, and the concentrations of each component were determined by LC-MS/MS.
# T4 sequence (P33261 whole entry): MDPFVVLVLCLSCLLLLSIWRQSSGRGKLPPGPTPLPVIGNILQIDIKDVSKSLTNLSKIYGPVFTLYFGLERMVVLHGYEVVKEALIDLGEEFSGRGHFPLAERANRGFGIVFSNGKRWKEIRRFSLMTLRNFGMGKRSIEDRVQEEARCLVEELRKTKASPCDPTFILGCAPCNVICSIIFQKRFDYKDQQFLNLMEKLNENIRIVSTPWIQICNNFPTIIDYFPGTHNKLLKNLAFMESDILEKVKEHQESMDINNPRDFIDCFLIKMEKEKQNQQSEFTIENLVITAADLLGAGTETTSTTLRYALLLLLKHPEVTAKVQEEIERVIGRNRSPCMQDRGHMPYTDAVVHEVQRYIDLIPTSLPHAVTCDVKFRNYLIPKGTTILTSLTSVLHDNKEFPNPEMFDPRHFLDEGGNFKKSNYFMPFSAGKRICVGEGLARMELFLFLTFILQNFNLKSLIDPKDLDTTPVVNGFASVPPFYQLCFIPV
# Sequence of hrCYP2D6 (P10635 whole entry): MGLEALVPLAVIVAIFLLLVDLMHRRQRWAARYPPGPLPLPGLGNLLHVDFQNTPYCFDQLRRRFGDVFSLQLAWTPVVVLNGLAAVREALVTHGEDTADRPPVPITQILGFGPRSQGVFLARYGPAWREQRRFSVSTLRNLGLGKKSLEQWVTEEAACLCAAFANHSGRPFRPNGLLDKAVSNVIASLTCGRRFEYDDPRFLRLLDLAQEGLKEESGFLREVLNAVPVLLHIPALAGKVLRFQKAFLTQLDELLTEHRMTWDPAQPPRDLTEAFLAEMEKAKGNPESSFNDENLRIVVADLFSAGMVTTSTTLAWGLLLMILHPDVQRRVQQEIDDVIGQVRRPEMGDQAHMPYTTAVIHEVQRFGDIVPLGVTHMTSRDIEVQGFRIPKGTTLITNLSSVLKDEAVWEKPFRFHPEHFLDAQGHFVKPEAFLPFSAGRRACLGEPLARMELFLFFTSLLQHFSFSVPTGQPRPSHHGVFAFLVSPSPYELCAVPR
# T2 sequence (P10635 whole entry): as above
# Sequence of hrCYP3A4 (P08684 whole entry): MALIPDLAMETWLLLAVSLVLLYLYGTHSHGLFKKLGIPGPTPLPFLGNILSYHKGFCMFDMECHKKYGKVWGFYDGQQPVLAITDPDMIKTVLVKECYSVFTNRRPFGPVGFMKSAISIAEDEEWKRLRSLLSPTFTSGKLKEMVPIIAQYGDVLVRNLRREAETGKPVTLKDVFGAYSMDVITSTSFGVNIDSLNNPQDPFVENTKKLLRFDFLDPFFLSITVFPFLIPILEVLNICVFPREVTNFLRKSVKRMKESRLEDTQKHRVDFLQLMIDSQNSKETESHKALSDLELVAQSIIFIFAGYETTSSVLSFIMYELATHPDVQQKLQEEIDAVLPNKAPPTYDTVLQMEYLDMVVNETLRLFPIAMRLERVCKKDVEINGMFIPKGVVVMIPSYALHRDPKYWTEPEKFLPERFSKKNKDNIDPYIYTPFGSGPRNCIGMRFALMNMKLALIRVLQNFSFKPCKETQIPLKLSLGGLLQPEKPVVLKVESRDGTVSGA
# Sequence of hrCYP2C9 (P11712 whole entry): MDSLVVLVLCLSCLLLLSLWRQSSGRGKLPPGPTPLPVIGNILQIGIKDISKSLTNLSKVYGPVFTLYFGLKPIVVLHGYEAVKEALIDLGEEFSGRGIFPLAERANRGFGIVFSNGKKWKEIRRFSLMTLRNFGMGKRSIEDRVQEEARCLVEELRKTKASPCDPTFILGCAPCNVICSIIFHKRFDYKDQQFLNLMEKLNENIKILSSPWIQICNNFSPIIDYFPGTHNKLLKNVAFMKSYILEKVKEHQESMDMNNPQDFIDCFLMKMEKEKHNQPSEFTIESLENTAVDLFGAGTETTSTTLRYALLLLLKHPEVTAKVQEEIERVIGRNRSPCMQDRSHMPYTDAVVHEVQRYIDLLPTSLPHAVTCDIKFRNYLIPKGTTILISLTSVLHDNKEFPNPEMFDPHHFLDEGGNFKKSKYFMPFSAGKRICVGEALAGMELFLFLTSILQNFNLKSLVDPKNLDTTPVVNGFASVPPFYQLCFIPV
# T3 sequence (P11712 whole entry): as above
compound,measurement,setting,value
"O=C(O)CCCc1ccccc1 [PB, sodium phenylbutyrate]",% Remaining of TA (n = 3) Average,[1]; 0 h,100%
same,% Remaining of TA (n = 3) Average,[1]; 5 min,116%
same,% Remaining of TA (n = 3) Average,[1]; 10 min,131%
same,% Remaining of TA (n = 3) Average,[1]; 20 min,125%
same,% Remaining of TA (n = 3) Average,[1]; 0.5 h,127%
same,% Remaining of TA (n = 3) Average,[1]; 1 h,128%
same,% Remaining of TA (n = 3) Average,[2]; 0 h,100%
same,% Remaining of TA (n = 3) Average,[2]; 20 min,97.5%
same,% Remaining of TA (n = 3) Average,[2]; 1 h,98.8%
same,% Remaining of TA (n = 3) Average,[3]; 0 h,100%
same,% Remaining of TA (n = 3) Average,[3]; 5 min,103%
same,% Remaining of TA (n = 3) Average,[3]; 20 min,98.5%
same,% Remaining of TA (n = 3) Average,[3]; 0.5 h,99.6%
same,% Remaining of TA (n = 3) Average,[3]; 1 h,97.6%
same,% Remaining of TA (n = 3) Average,[4]; 0 h,100%
same,% Remaining of TA (n = 3) Average,[4]; 5 min,101%
same,% Remaining of TA (n = 3) Average,[4]; 20 min,101%
same,% Remaining of TA (n = 3) Average,[4]; 0.5 h,101%
same,% Remaining of TA (n = 3) Average,[4]; 1 h,101%
same,% Remaining of TA (n = 3) Average,[5]; 5 min,109%
same,% Remaining of TA (n = 3) Average,[5]; 20 min,113%
same,% Remaining of TA,hrCYP1A2; 0 h,100%
same,% Remaining of TA,hrCYP1A2; 5 min,98.3%
same,% Remaining of TA,hrCYP1A2; 20 min,99.9%
same,% Remaining of TA,hrCYP1A2; 0.5 h,101%
same,% Remaining of TA,hrCYP1A2; 1 h,95.1%
same,% remained after 60 minutes of incubation,hrCYP1A2; 1 h,greater than 90%
same,% remained after 60 minutes of incubation,hrCYP2C8,greater than 90%
same,% Remaining of TA,hrCYP2C9; 0 h,100%
same,% Remaining of TA,hrCYP2C9; 20 min,99.5%
same,% Remaining of TA,hrCYP2C9; 1 h,98.0%
same,% remained after 60 minutes of incubation,hrCYP2C9; 1 h,greater than 90%
same,% Remaining of TA,hrCYP2D6; 0 h,100%
same,% Remaining of TA,hrCYP2D6; 5 min,99.9%
same,% Remaining of TA,hrCYP2D6; 10 min,96.7%
same,% Remaining of TA,hrCYP2D6; 20 min,97.6%
same,% Remaining of TA,hrCYP2D6; 0.5 h,101%
same,% Remaining of TA,hrCYP2D6; 1 h,100%
same,% remained after 60 minutes of incubation,hrCYP2D6; 1 h,greater than 90%
same,% Remaining of TA,hrCYP3A4; 0 h,100%
same,% Remaining of TA,hrCYP3A4; 5 min,100%
same,% Remaining of TA,hrCYP3A4; 10 min,97.9%
same,% Remaining of TA,hrCYP3A4; 20 min,100%
same,% Remaining of TA,hrCYP3A4; 0.5 h,98.1%
same,% remained after 60 minutes of incubation,hrCYP3A4; 1 h,greater than 90%
same,estimated [I]2,[6]; Table 28,64447 µM
same,projected unbound Cmax,[6]; Table 28,148 µM
same,Plasma Cmax (total [I]1),[6]; component of AMX0035,826 µM
same,[I]2,"[6]; estimated, highest oral dose TUDCA 1000 mg, PB 3000 mg",64447 µM
same,"projected unbound Iin,max",[6]; human,326 µM
same,unbound [I]1,[6]; human,148 µM
same,Unbound Cmax (Unbound [I]1),[6]; projected,148 µM
same,"Unbound [I]in, max",[6]; projected,326 µM
same,solubility,"[7]; HBSSg 7.4 buffer, pH 7.4, aqueous buffer",≥ 64.4 mM
same,solubility,"[7]; HBSSg 8.5 buffer, pH 8.5, aqueous buffer",≥ 73.9 mM
same,Measured Concentration,[7]; HBSSg_7.4,52000 µM and 59300 µM and 52800 µM
same,Percent of the Nominal Concentration,"[7]; HBSSg_7.4, target 8005 (TUDCA), 64447 μM (PB)",80.7% and 92.0%
same,Measured Concentration,[7]; HBSSg_8.5,62200 µM and 53200 µM and 61100 µM
same,Percent of the Nominal Concentration,"[7]; HBSSg_8.5, target 810 μM (TUDCA), 73927 μM (PB)",84.1% and 72.0% and 82.6%
